These results are taken from patent US8481551B2, “Gyrase and topoisomerase IV inhibitors” (Vertex Pharmaceuticals Incorporated, priority 2011, dated 2013).

In one data set the test system is Proteus mirabilis. Description: Gyrase MIC against Gram negatives, microdilution broth method (Protocol 2). The class given is cell-based. The settings on record: 12 isolates tested. For orientation: Broth dilution looks for growth in wells or tubes with falling amounts of substance.
The test system of the next data set is Acinetobacter baumannii. The description is as above. The class given is cell-based. The note with it: for MIC90: Acinetobacter baumannii, 12 isolates tested.
For another data set, the system named is Moraxella catarrhalis. The description is as above. The settings on record: for MIC90 / MIC Range: Moraxella catarrhalis, 26 isolates tested. It is filed as cell-based.
The next data set concerns Haemophilus influenzae. The data set is described as above. The settings on record: for MIC90 / MIC Range: Haemophilus influenzae, 55 isolates tested. The class given is cell-based.
The subject of another data set is Neisseria gonorrhoeae. Description: Gyrase MIC, agar dilution method (Protocol 3). The class given is cell-based. The settings on record: for MIC90 / MIC Range: Neisseria gonorrhoeae, 13 isolates tested. For orientation: Agar dilution tests growth on a series of plates holding different concentrations.
The test system of a further data set is Nocardia caviae. Description: MIC determination procedure for Mycobacterium species (Protocol 4). The settings on record: Nocardia otitidiscaviarum. The class given is cell-based.
The next data set relates to Mycobacterium avium. The data set is described as above. The class given is cell-based.
For data set [1], the system named is Mycobacterium tuberculosis. Description: Mycobacterium tuberculosis serum shift MIC assay (Protocol 5). The class given is cell-based. The settings on record: ATCC 35801 / ERDMAN. From the text:
Protocol 5. Protocol for Mycobacterium tuberculosis Serum Shift MIC Assay
Media Prep: • 1. […] It was important that all media and supplements were sterilized prior to MICs. • 2. Prepared all media below and inoculated as described in next section. Tested all compounds against Mtb using each media. • a. […] 7H9+0.2% glycerol+2 g/L dextrose+0.85 g/L NaCl+0.003 g/L catalase (0% FBS). • c. 2×7H9+0.2% glycerol+2 g/L dextrose+0.85 g/L NaCl+0.003 g/L catalase combined with equal volume Fetal Bovine Serum (50% FBS).
Inoculum Prep: • 1. […] Typically plates were two to three weeks of age when used for this assay due to the slow growth of this organism in culture. • 2. Vortexed well, then sonicated in water bath for 30 sec providing a suspension of ˜10^8 cells/ml. […] Prepared inoculum in each of the three media formulations by diluting the BBL Prompt suspension 1/200 (for example: transferred 0.2 ml of cells to 40 ml of medium) to obtain a starting cell density of ˜10^6 cells/ml. • 4.
After 24 hours the fluorescence of each well was measured at Excitation 492 nm, Emission 595 nm.
Percent inhibition by a given compound was calculated as follows: Percent inhibition=100−([well fluorescence-average background fluorescence]/[DMSO control−average background fluorescence]×100).

The next data set has as its system Escherichia coli. The data set can be described thus: Gyrase MIC against Gram negatives, microdilution broth method (Protocol 2). The settings on record: for MIC90: 12 isolates tested. It is filed as cell-based.
Data set [2] in a line: Pharmacokinetics, rat oral study. The class given is in vivo, Sprague Dawley rats. The note with it: male, Sprague Dawley, label = analyte; for Cmax: read-out: Cmax/C0. The text has this: Pharmacokinetic Data Analysis.
Statistical Data Analysis.
Plasma concentration vs. time data was subjected to noncompartmental pharmacokinetic (PK) analysis.

Where [3] appears, read: ATCC19606, Acinetobacter baumannii ATCC 19606.
The mark [4] stands for this setting: ATCCBAA1710, Acinetobacter baumannii ATCC BAA-1710.
Where [5] appears, read: ATCC25238, Moraxella catarrhalis ATCC 25238.
The mark [6] stands for this setting: ATCC49143, Moraxella catarrhalis ATCC 49143.
[7] abbreviates: ATCC49247, Haemophilus influenzae ATCC 49247.
The mark [8] stands for this setting: Haemophilus influenzae Rd0894 (AcrA-).
[9] abbreviates: ATCC35541, Neisseria gonorrhoeae ATCC 35541.
[10] abbreviates: ATCC49226, Neisseria gonorrhoeae ATCC 49226.
Setting [11] is: M. tuberculosis Erdman ATCC 35801, read-out: MIC.
The mark [12] stands for this setting: M. tuberculosis Erdman ATCC 35801 with Mouse Serum.
Setting [13] is: ATCC25922, Escherichia coli ATCC 25922.
The mark [14] stands for this setting: plasma, 30 mg/kg, Compound W dosed orally 30 mg/kg in 0.5% MC.
The mark [15] stands for this setting: plasma, 100 mg/kg, Compound W dosed orally 100 mg/kg in 0.5% MC.
Setting [16] is: plasma, 300 mg/kg, Compound W dosed orally 300 mg/kg in 0.5% MC.
Where [17] appears, read: plasma, 300 mg/kg, Compound W dosed orally 300 mg/kg in 20% CAPT, 1% HPMC-AS, 1% PVP.

By Tmax is commonly meant the time from dosing to the highest level.

The structures appear in SMILES notation. Where a name gives a salt, the structure may show the parent alone. Read-outs that look alike come from different tables or passages of the source.

As to `CCNC(=O)Nc1nc2cc(-c3cnc(C(C)(C)O)nc3)cc([C@H]3CCCO3)c2[nH]1` [Compound 13, methanesulfonic acid salt of 1-ethyl-3-[5-[2-(1-hydroxy-1-methyl-ethyl)pyrimidin-5-yl]-7-[(2R)-tetrahydrofuran-2-yl]-1H-benzimidazol-2-yl]urea], the MIC90 in the data set with Proteus mirabilis was more than 8 µg/mL; against Acinetobacter baumannii, more than 8 µg/mL; in the data set with Moraxella catarrhalis it was 0.12 µg/mL; against Haemophilus influenzae it was 2 µg/mL; against Neisseria gonorrhoeae, 1 µg/mL; in the data set with Escherichia coli, more than 8 µg/mL. For the same compound, the MIC in the data set on Acinetobacter baumannii (setting [3]) was more than 16 µg/mL; with Acinetobacter baumannii (setting [4]), more than 16 µg/mL; in the data set with Moraxella catarrhalis (setting [5]), 0.071 µg/mL; in the data set on Moraxella catarrhalis (setting [6]) it was 0.04 µg/mL; against Haemophilus influenzae (setting [7]), 1 µg/mL; with Haemophilus influenzae (setting [8]), 0.14 µg/mL. Further, the MIC with Neisseria gonorrhoeae (setting [9]) came out at 1.3 µg/mL; in the data set on Neisseria gonorrhoeae (setting [10]) it was 2.3 µg/mL; in the data set with Nocardia caviae (Nocardia caviae 2497, Protocol 4, read-out: MIC), 2 µg/mL; with Mycobacterium avium (M. avium 3404.4) it was 0.94 µg/mL; with Mycobacterium avium (M. avium Far) it was 0.94 µg/mL; in the data set on Mycobacterium avium (Mycobacterium avium 103), 0.47 µg/mL. The MIC in [1] (setting [11]) was 0.045 µg/mL; in [1] (setting [12]), 2 µg/mL; against Escherichia coli (setting [13]), 16 µg/mL; against Escherichia coli (Escherichia coli AG100 WT), more than 16 µg/mL; against Escherichia coli (Escherichia coli AG100 tolC), 0.11 µg/mL; with Escherichia coli (Escherichia coli CHE30) it was more than 16 µg/mL. Also, the MIC was 0.5 µg/mL against Escherichia coli (Escherichia coli CHE30 tolC), more than 16 µg/mL with Escherichia coli (Escherichia coli MC4100) and 1 µg/mL in the data set with Escherichia coli (Escherichia coli MC4100 tolC). The entries for the “MIC Range” value against Moraxella catarrhalis, against Haemophilus influenzae and with Neisseria gonorrhoeae were 0.015 to 0.12 µg/mL, 0.25 to 8 µg/mL and 0.5-1^ μg/ml, respectively.

On to `CCNC(=O)Nc1nc2cc(-c3cnc(C(C)(C)O)nc3)c(F)c([C@H]3CCCO3)c2[nH]1` [Compound 23, 1-ethyl-3-[6-fluoro-5-[2-(1-hydroxy-1-methyl-ethyl)pyrimidin-5-yl]-7-[(2R)-tetrahydrofuran-2-yl]-1H-benzimidazol-2-yl]urea], for which the AUC stood at 311 ng·h/mL in data set [2] (in vivo, 3 mg/kg, rat plasma, Compound W dosed orally 3 mg/kg in 0.5% MC, read-out: AUC); 22500 ng·h/mL in data set [2] (in vivo, 30 mg/kg, rat plasma, Compound W dosed orally 30 mg/kg in 0.5% MC, read-out: AUC); 77100 ng·h/mL in [2] (in vivo, 100 mg/kg, rat plasma, Compound W dosed orally 100 mg/kg in 0.5% MC, read-out: AUC); 223000 ng·h/mL in data set [2] (in vivo, 300 mg/kg, rat plasma, Compound W dosed orally 300 mg/kg in 0.5% MC, read-out: AUC); 295000 ng·h/mL in [2] (in vivo, 300 mg/kg, rat plasma, Compound W dosed orally 300 mg/kg in 20% CAPT, 1% HPMC-AS, 1% PVP, read-out: AUC); 314 ng·h/mL in data set [2] (plasma, 3 mg/kg, Compound W dosed orally 3 mg/kg in 0.5% MC, read-out: AUCextrap). The AUC in data set [2] (plasma, 30 mg/kg, Compound W dosed orally 30 mg/kg in 0.5% MC, read-out: AUCextrap) came to 22600 ng·h/mL; in data set [2] (plasma, 100 mg/kg, Compound W dosed orally 100 mg/kg in 0.5% MC, read-out: AUCextrap), 77400 ng·h/mL. For the same compound, the Cmax in [2] (in vivo, 3 mg/kg, rat plasma, Compound W dosed orally 3 mg/kg in 0.5% MC) came out at 117 ng/mL; in data set [2] (in vivo, 30 mg/kg, rat plasma, Compound W dosed orally 30 mg/kg in 0.5% MC) it was 2900 ng/mL; in [2] (in vivo, 100 mg/kg, rat plasma, Compound W dosed orally 100 mg/kg in 0.5% MC) it was 6600 ng/mL; in data set [2] (in vivo, 300 mg/kg, rat plasma, Compound W dosed orally 300 mg/kg in 0.5% MC), 11700 ng/mL; in data set [2] (in vivo, 300 mg/kg, rat plasma, Compound W dosed orally 300 mg/kg in 20% CAPT, 1% HPMC-AS, 1% PVP), 16200 ng/mL.

In the case of `CCNC(=O)Nc1nc2cc(-c3cnc(C(C)(C)O)nc3)c(F)c([C@H]3CCCO3)c2[nH]1` [Compound 23A, methanesulfonic acid salt of 1-ethyl-3-[6-fluoro-5-[2-(1-hydroxy-1-methyl-ethyl)pyrimidin-5-yl]-7-[(2R)-tetrahydrofuran-2-yl]-1H-benzimidazol-2-yl]urea], the MIC90 in the data set on Proteus mirabilis was more than 8 µg/mL; with Acinetobacter baumannii, more than 8 µg/mL; in the data set on Moraxella catarrhalis it was 0.03 µg/mL; in the data set with Haemophilus influenzae, 1 µg/mL; with Neisseria gonorrhoeae, 0.25 µg/mL; with Escherichia coli, more than 8 µg/mL. The MIC against Acinetobacter baumannii (setting [3]) is 8 µg/mL; with Acinetobacter baumannii (setting [4]), 6 µg/mL; against Moraxella catarrhalis (setting [5]), not above 0.016 µg/mL; in the data set with Moraxella catarrhalis (setting [6]), not above 0.016 µg/mL; in the data set with Haemophilus influenzae (setting [7]), 0.5 µg/mL; in the data set with Haemophilus influenzae (setting [8]) it was 0.041 µg/mL. Besides, the MIC in the data set on Neisseria gonorrhoeae (setting [9]) turned out to be 0.42 µg/mL; in the data set with Neisseria gonorrhoeae (setting [10]), 1 µg/mL; with Nocardia caviae it was 0.125 µg/mL; against Mycobacterium avium (M. avium 3404.4), 0.23 µg/mL; in the data set with Mycobacterium avium (M. avium Far), 0.23 µg/mL; with Mycobacterium avium (Mycobacterium avium 103), 0.18 µg/mL. In addition, the MIC in [1] (setting [11]) was 0.03 µg/mL; in data set [1] (setting [12]) it was 0.5 µg/mL; against Escherichia coli (setting [13]), 12 µg/mL; in the data set on Escherichia coli (Escherichia coli AG100 WT), 4 µg/mL; in the data set with Escherichia coli (Escherichia coli AG100 tolC) it was 0.063 µg/mL; against Escherichia coli (Escherichia coli CHE30), 8 µg/mL. The MIC against Escherichia coli (Escherichia coli CHE30 tolC) was 0.125 µg/mL; against Escherichia coli (Escherichia coli MC4100) it was more than 16 µg/mL; with Escherichia coli (Escherichia coli MC4100 tolC), 0.25 µg/mL. The “MIC Range” value is “≦0.004-0.03^ μg/ml” in the data set with Moraxella catarrhalis, 0.06-2^ μg/ml against Haemophilus influenzae and 0.12 to 0.25 µg/mL against Neisseria gonorrhoeae.

As for `CCNC(=O)Nc1nc2cc(-c3cnc(C(C)(C)OP(=O)([O-])[O-])nc3)c(F)c([C@H]3CCCO3)c2[nH]1.[Na+].[Na+]` [Compound W, disodium (R)-2-(5-(2-(3-ethylureido)-6-fluoro-7-(tetrahydrofuran-2-yl)-1H-benzo[d]imidazol-5-yl)pyrimidin-2-yl)propan-2-yl phosphate], the Tmax in [2] (setting [14]) was 3.3 h; in [2] (setting [15]) it was 0.8 h; in data set [2] (setting [16]), 1.2 h; in data set [2] (setting [17]), 1.8 h. For the same compound, the AUC in data set [2] (plasma, 30 mg/kg, Compound W dosed orally 30 mg/kg in 0.5% MC, read-out: AUC) worked out at 178 ng·h/mL; in data set [2] (plasma, 100 mg/kg, Compound W dosed orally 100 mg/kg in 0.5% MC, read-out: AUC), 61 ng·h/mL; in [2] (plasma, 300 mg/kg, Compound W dosed orally 300 mg/kg in 0.5% MC, read-out: AUC), 324 ng·h/mL; in data set [2] (plasma, 300 mg/kg, Compound W dosed orally 300 mg/kg in 20% CAPT, 1% HPMC-AS, 1% PVP, read-out: AUC), 2370 ng·h/mL. Further, the Cmax in data set [2] (setting [14]) amounted to 22 ng/mL; in [2] (setting [15]), 21 ng/mL; in data set [2] (setting [16]), 2330 ng/mL; in data set [2] (setting [17]) it was 600 ng/mL. The MIC in the data set with Haemophilus influenzae (setting [8]) was 0.25 µg/mL; against Escherichia coli (Escherichia coli AG100 WT) it was more than 16 µg/mL.
